Laboratory results as given in US10370366B2 (Flatley Discovery Lab, LLC, priority 2013, dated 2019).

Target: T1, human F508del CFTR (Homo sapiens, UniProt P13569, DEL508-508)
T1 construct: expressed in transfected cells; host or cells: Fisher Rat Thyroid (FRT) cells
Test: CFTR-YFP High Throughput Assay
Assay type: cell-based
Conditions: FRT cells expressing human F508del CFTR and YFP; for Emax: EMax normalized to the positive control, read-out: % Efficacy
Method in brief: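 FRT cells stably co-expressing human F508del CFTR and halide-sensitive YFP-H148Q/I152L; for correction, compound (2 nM-40 μM) incubated 24-26 h at 37° C, washed, then stimulated 60-120 min at RT with 20 μM forskolin plus 30 μM potentiator P3. Iodide-induced YFP quench (Ex 500/Em 540 nm) recorded; quench rates least-squares fitted.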

T1 sequence (P13569 with tags, fused parts or gaps DEL508-508): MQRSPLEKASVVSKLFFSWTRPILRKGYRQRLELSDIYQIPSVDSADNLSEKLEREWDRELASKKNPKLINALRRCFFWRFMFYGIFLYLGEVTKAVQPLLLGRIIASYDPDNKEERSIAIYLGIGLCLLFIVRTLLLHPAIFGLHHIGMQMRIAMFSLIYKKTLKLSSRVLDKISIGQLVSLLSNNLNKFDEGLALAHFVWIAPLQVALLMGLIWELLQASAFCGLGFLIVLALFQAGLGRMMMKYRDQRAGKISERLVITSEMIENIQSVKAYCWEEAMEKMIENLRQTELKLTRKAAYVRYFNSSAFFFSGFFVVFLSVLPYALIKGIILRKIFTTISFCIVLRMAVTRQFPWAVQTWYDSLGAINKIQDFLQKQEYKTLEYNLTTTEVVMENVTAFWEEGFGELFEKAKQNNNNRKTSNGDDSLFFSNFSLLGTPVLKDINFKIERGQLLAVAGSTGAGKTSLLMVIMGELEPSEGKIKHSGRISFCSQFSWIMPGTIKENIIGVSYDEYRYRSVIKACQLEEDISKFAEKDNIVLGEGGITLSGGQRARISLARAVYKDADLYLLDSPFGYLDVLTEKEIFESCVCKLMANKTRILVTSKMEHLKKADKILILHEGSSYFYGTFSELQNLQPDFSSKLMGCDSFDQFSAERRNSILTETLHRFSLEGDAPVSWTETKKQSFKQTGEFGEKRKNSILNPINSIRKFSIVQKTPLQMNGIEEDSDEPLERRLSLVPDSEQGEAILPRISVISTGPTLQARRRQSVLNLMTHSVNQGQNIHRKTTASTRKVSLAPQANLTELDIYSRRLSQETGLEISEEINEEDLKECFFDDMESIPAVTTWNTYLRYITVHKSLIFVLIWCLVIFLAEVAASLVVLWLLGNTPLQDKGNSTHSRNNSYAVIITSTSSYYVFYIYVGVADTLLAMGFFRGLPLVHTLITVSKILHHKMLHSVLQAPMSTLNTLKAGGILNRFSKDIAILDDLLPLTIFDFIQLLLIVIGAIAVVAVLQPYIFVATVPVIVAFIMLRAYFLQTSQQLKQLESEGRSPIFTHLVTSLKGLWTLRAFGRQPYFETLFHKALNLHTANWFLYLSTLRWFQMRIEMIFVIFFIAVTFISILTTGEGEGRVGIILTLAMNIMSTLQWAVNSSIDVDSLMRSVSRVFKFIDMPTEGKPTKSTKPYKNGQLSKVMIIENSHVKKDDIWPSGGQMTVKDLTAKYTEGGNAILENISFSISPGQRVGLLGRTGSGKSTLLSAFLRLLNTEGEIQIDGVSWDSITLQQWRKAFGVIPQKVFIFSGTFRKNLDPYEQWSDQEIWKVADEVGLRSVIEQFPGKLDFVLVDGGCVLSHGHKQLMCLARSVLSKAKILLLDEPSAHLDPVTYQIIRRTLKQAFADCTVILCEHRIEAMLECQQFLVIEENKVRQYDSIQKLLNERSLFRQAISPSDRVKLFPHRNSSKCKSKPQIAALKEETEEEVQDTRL

Row | SMILES | Emax [%] | EC50 [µM]
1 | CCc1ccc(N(CC)C(=O)Cn2nc(-c3ccc(S(N)(=O)=O)cc3)c3ccccc3c2=O)cc1 [Example 13, N-ethyl-N-(4-ethylphenyl)-2-(1-oxo-4-(4-sulfamoylphenyl)phthalazin-2(1H)-yl)acetamide] | 30 to 80 | 10 to 20
2 | CCN(C(=O)Cn1nc(Cc2cccnc2)c2cc(OC)ccc2c1=O)c1ccc2c(c1)OC(F)(F)O2 [Example 51, N-(2,2-difluorobenzo[d][1,3]dioxol-5-yl)-N-ethyl-2-(6-methoxy-1-oxo-4-(pyridin-3-ylmethyl)phthalazin-2(1H)-yl)acetamide] | 30 to 80 | –
3 | CCN(C(=O)Cn1nc(Cc2cccnc2)c2cccc(OC)c2c1=O)c1ccc2c(c1)OC(F)(F)O2 [Example 55, N-(2,2-difluorobenzo[d][1,3]dioxol-5-yl)-N-ethyl-2-(8-methoxy-1-oxo-4-(pyridin-3-ylmethyl)phthalazin-2(1H)-yl)acetamide] | 30 to 80 | –
4 | CCN(C(=O)c1nn(-c2ccc(C)cn2)c(=O)c2c1c1ccccc1n2C)c1ccccc1 [Example 180, N-ethyl-5-methyl-3-(5-methylpyridin-2-yl)-4-oxo-N-phenyl-4,5-dihydro-3H-pyridazino[4,5-b]indole-1-carboxamide] | 10 to 30 | –
5 | CCOc1cc2c(=O)n(CC(=O)N(C)c3ccc4nc(C)oc4c3)nc(-c3cccc(F)c3)c2cc1Cl [Example 121, 2-(6-chloro-7-ethoxy-4-(3-fluorophenyl)-1-oxophthalazin-2(1H)-yl)-N-methyl-N-(2-methylbenzo[d]oxazol-6-yl)acetamide] | > 80 | –
6 | CCN(C(=O)c1nn(-c2ccc(C)cc2)c(=O)c2c1c1ccccc1n2C)c1cc(Cl)ccc1C(=O)O [Example 183, 4-chloro-2-(N-ethyl-5-methyl-4-oxo-3-(p-tolyl)-4,5-dihydro-3H-pyridazino[4,5-b]indole-1-carboxamido)benzoic acid] | 30 to 80 | –
7 | COc1ccc(C2(C(=O)Cn3nc(-c4cccc(Cl)c4)c4ccc(OC)cc4c3=O)CC2)cc1 [Example 251, 4-(3-chlorophenyl)-7-methoxy-2-(2-(1-(4-methoxyphenyl)cyclopropyl)-2-oxoethyl)phthalazin-1(2H)-one] | 30 to 80 | < 10
8 | CCN(C(=O)Cn1nc(-c2cccc(C#N)c2)c2ccc(OC)cc2c1=O)c1ccc2nc(C)oc2c1 [Example 81, 2-(4-(3-cyanophenyl)-7-methoxy-1-oxophthalazin-2(1H)-yl)-N-ethyl-N-(2-methylbenzo[d]oxazol-6-yl)acetamide] | > 80 | < 10
9 | Cc1nc2ccc(N(C)C(=O)Cn3nc(-c4cccc(C#N)c4)c4ccc(OC5CCOCC5)cc4c3=O)cc2o1 [Example 120, 2-(4-(3-cyanophenyl)-1-oxo-7-((tetrahydro-2H-pyran-4-yl)oxy)phthalazin-2(1H)-yl)-N-methyl-N-(2-methylbenzo[d]oxazol-6-yl)acetamide] | > 80 | < 10
10 | CCc1ccc(N(CC)C(=O)Cn2nc(Cc3cccnc3)c3cnccc3c2=O)cc1 [Example 42, N-ethyl-N-(4-ethylphenyl)-2-(1-oxo-4-(pyridin-3-ylmethyl)pyrido[3,4-d]pyridazin-2(1H)-yl)acetamide] | 10 to 30 | –
11 | CCN(C(=O)c1nn(C2CCOCC2)c(=O)c2c1c1ccccc1n2C)c1ccccc1 [Example 185, N-ethyl-5-methyl-4-oxo-N-phenyl-3-(tetrahydro-2H-pyran-4-yl)-4,5-dihydro-3H-pyridazino[4,5-b]indole-1-carboxamide] | 30 to 80 | < 10
12 | CCN(C(=O)Cn1ncc2c(c1=O)c1ccccc1n2Cc1ccc(OC)cc1)c1ccc2c(c1)OC(F)(F)O2 [Example 136, N-(2,2-difluorobenzo[d][1,3]dioxol-5-yl)-N-ethyl-2-(5-(4-methoxybenzyl)-1-oxo-1H-pyridazino[4,5-b]indol-2(5H)-yl)acetamide] | 30 to 80 | < 10
